From patent EP0221719A2, “Novel cephalosporin derivatives, processes for their preparation and pharmaceutical compositions containing them” (BIOGAL GYOGYSZERGYAR, priority 1985, dated 1987) come the findings set out here.

For one assay, the system named is Pseudomonas aeruginosa. Kind of assay: microbe, parasite or virus in culture. Conditions: 24 h.
The subject of assay [1] is Staphylococcus aureus 1110. Kind of assay: MIC determination (antibacterial activity in vitro). Type of assay: cell-based. Conditions: after 24 hours.
The next assay has as its system Shigella sonnei. The assay is described as above. Type of assay: cell-based. Conditions: after 24 hours.
The test system of the next assay is Escherichia coli K12. Described as above. It is filed as cell-based. Conditions: after 24 hours.
Assay [2] relates to Streptococcus haemolyticus A118. Described as above. The note with it: after 24 hours. Type of assay: cell-based.
For assay [3], the system named is Streptococcus haemolyticus Pneumo. The description is as above. Type of assay: cell-based. The note with it: after 24 hours.
Another assay deals with Escherichia coli R-15. The description is as above. Type of assay: cell-based. The note with it: R15, after 24 hours.
Assay [4] has as its system Staphylococcus aureus Smith. Described as above. Type of assay: cell-based. Conditions: after 24 hours.
For assay [5], the system named is Escherichia coli poliresistens. Described as above. It is filed as cell-based. The note with it: 24 h.
Assay [6] relates to Clostridium perfringens Cp. The assay is described as follows: microbe, parasite or virus in culture. Type of assay: cell-based. Conditions: 24 h.
The next assay deals with Salmonella typhi murium. Kind of assay: MIC determination (antibacterial activity in vitro). It is filed as cell-based. The note with it: Salmonella enterica, 24 h.
In assay [7] the test system is Klebsiella sp. ATCC 10031. The description is as above. Type of assay: cell-based. Conditions: ATCC10031, after 24 hours.
Another assay relates to Escherichia coli 6R. Described as above. Type of assay: cell-based. Conditions: 24 h.
Assay [8] concerns Salmonella typhi murium and Proteus vulgaris. The assay is described as follows: In vivo effectivity in artificially infected mice (protection test). The note with it: for living animal / group 1st day / living animal / group 3rd day: groups of 5 infected mice; for ED50: sc.
The subject of the next assay is Escherichia coli R-222. Kind of assay: MIC determination (antibacterial activity in vitro). Type of assay: cell-based. The note with it: R222, 24 h.
Assay [9] concerns Staphylococcus epidermidis A CC I-12228. The assay is described as above. The note with it: ACCI12228, after 24 hours. Type of assay: cell-based.
Assay [10] concerns Pseudomonas pyocyanea NTCT 10.490. Described as above. Type of assay: cell-based. The note with it: Pseudomonas aeruginosa, NTCT10.490, after 24 hours. As for the experimental part: The MIC values expressed in mcg./mi. of SZMFO 110 after 24 hours are contained in Table 1.
The subject of the next assay is Proteus vulgaris XL. The assay is described as above. It is filed as cell-based. Conditions: after 24 hours.
The test system of assay [11] is Streptococcus haemolyticus Robb. Described as above. Type of assay: cell-based. Conditions: after 24 hours.
Assay [12] deals with Bacillus subtilis ATCC 6633. Described as above. It is filed as cell-based. Conditions: ATCC6633, after 24 hours.
A further assay has as its system Staphylococcus aureus 53. The assay is described as above. It is filed as cell-based. The note with it: after 24 hours.

Converted amounts (≈) assume the structure as drawn. Structures can show the parent of a compound that is named as a salt. Where two headings read alike, the source gives them in different places.

Take `CC(C)(ON=C(C(=O)NC1C(=O)N2C(C(=O)[O-])=C(C[n+]3ccccc3)CSC12)c1csc(N)n1)C(=O)O` [Ceftazimide, 1-//(6R,7R)-7-/2-(2-amino-4-thiazolyl)glyoxylamido/--2-carboxy-8-oxo-5-thia-1-azabicyclo/4.2.0/oct-2-ene--3-yl/methyl/pyridinium hydroxide inner salt 7^2-(Z)-/0-(1-carboxy-1-methylethyl)oxime/]: in the assay on Pseudomonas aeruginosa, the MIC amounted to 4 µg/mL.
The same measure, in the same setting: next, `CO/N=C(\C(=O)N[C@@H]1C(=O)N2C(C(=O)O)=C(CSc3nnnn3C)CS[C@H]12)c1csc(N)n1` [Cefmenoxime, (6R,7R)-7-/2-(2-amino-4-thiazolyl)glyoxylamido/-3-//(1-methyl-1H-tetrazol-5-yl)thio/methyl/-8-oxo-5-thia--1-azabicyclo/4.2.0/oct-2-ene-2-carboxylic acid 7^2-(Z)-(O-methyloxime)]: 64 µg/mL (≈ 125 µM).
What is called ED50 is the midpoint of the dose-response relation. Consider `CON=C(C(=O)NC1C(=O)N2C(C(=O)O)=C(CSc3nnc(S)s3)CSC12)c1csc(N)n1` (stereo not drawn) [SZMFO 110, 7β-[2-(2-aminothiazol-4-yl)-(Z)-2-methoxyimino-acetamido]-3-[(2-mercapto-1.3.4-thiadiazol-5-yl)thiomethyl]-ceph-3-em-4-carboxylic acid], for which the MIC worked out at 6.2 µg/mL (≈ 11.4 µM) in assay [1]; 0.06 µg/mL (≈ 0.11 µM) in the assay on Shigella sonnei; 0.03 µg/mL (≈ 0.055 µM) with Escherichia coli K12; 0.03 µg/mL (≈ 0.055 µM) in [2]; 0.03 µg/mL (≈ 0.055 µM) in assay [3]; 0.16 µg/mL (≈ 0.293 µM) against Escherichia coli R-15. Also, the MIC in assay [4] was 1.25 µg/mL (≈ 2.29 µM); in [5] it was 0.16 µg/mL (≈ 0.293 µM); in [6] it was 4 ng/mL (≈ 0.00733 µM); in the assay on Salmonella typhi murium, 0.06 µg/mL (≈ 0.11 µM); against Pseudomonas aeruginosa, 0.31 µg/mL (≈ 0.568 µM); in assay [7], 7 ng/mL (≈ 0.0128 µM). Besides, the MIC amounted to 0.25 µg/mL (≈ 0.458 µM) in the assay on Escherichia coli 6R; 0.03 µg/mL (≈ 0.055 µM) in the assay with Escherichia coli R-222; 0.6 µg/mL (≈ 1.1 µM) in assay [9]; 0.31 µg/mL (≈ 0.568 µM) in assay [10]; 7 ng/mL (≈ 0.0128 µM) against Proteus vulgaris XL; 0.03 µg/mL (≈ 0.055 µM) in [11]. Also, the MIC turned out to be 0.08 µg/mL (≈ 0.147 µM) in assay [12] and 1.6 µg/mL (≈ 2.93 µM) in the assay on Staphylococcus aureus 53. Besides, the “living animal / group 1st day” value in assay [8] (0.2 mg./kg. subcutaneously) is reported as 0; in assay [8] (1 mg./kg. subcutaneously), 4; in [8] (5 mg./kg. subcutaneously), 5; in [8] (25 mg./kg. subcutaneously), 5; in assay [8] (100 mg./kg. subcutaneously), 5. Also, the “living animal / group 3rd day” value in assay [8] (0.2 mg./kg. subcutaneously) is listed as 0; in [8] (1 mg./kg. subcutaneously), 4; in assay [8] (5 mg./kg. subcutaneously), 4; in assay [8] (25 mg./kg. subcutaneously), 5; in assay [8] (100 mg./kg. subcutaneously), 4. Besides, the ED50 in assay [8] (24 h, read-out: ED50 1st day) came out at 0.62 mg/kg; in assay [8] (72 h, read-out: ED50 3rd day) it was 0.62 mg/kg.
In the assay with Pseudomonas aeruginosa, `CO/N=C(\C(=O)N[C@@H]1C(=O)N2C(C(=O)O)=C(COC(C)=O)CS[C@H]12)c1csc(N)n1` [Cefotaxime, 7-[2-(2-amino-4-thiazolyl)-2-methoxy-iminoacetamido]-cephalosporanic acid] came in with an MIC of 32 µg/mL (≈ 70.3 µM).
The molecule `CCN1CCN(C(=O)N[C@@H](C(=O)N[C@@H]2C(=O)N3C(C(=O)O)=C(CSc4nnnn4C)CS[C@H]23)c2ccc(O)cc2)C(=O)C1=O` [Cefoperazone, 7-[D-(-)-α-(4-ethyl-2,3-dioxo-1-piperazinecarboxamido)-α-(4-hydroxyphenyl)-acetamido]-3-[[(1-methyl-1H-tetranol-5-yl)thio]methyl]-ceph-3-em-4-carboxylic acid, reference compound] came in with an MIC against Pseudomonas aeruginosa of 8 µg/mL (≈ 12.4 µM). Also, the “living animal / group 1st day” value in assay [8] (0.2 mg./kg. subcutaneously) is reported as 1; in assay [8] (1 mg./kg. subcutaneously), 4; in assay [8] (5 mg./kg. subcutaneously), 5; in assay [8] (25 mg./kg. subcutaneously), 4; in assay [8] (100 mg./kg. subcutaneously), 5. Also, the “living animal / group 3rd day” value in assay [8] (0.2 mg./kg. subcutaneously) is 1; in assay [8] (1 mg./kg. subcutaneously), 1; in assay [8] (5 mg./kg. subcutaneously) it was 3; in assay [8] (25 mg./kg. subcutaneously), 4; in [8] (100 mg./kg. subcutaneously) it was 4. The ED50 turned out to be 0.44 mg/kg in assay [8] (24 h, read-out: ED50 1st day) and 3.7 mg/kg in assay [8] (72 h, read-out: ED50 3rd day).
As for `CO/N=C(\C(=O)N[C@@H]1C(=O)N2C(C(=O)O)=CCS[C@H]12)c1csc(N)n1` [Ceftizoxime, (6R,7R)-7-/2-(2-amino-4-thiazolyl)glyoxylamido/-8--oxo-5-thia-l-azabicyclo/4.2.0/oct-2-ene-2-carboxylic acid 7^2-(Z)-(0-methyloxime)], the MIC against Pseudomonas aeruginosa was 64 µg/mL (≈ 167 µM).
